According to publication PMC8041284, “Tunable Methacrylamides for Covalent Ligand Directed Release Chemistry” (Journal of the American Chemical Society, 2021):
Where a SMILES comes first, the peptide text is derived from it. [ ]: non-standard residue; d: D form. The star is where a group is joined. Dolaproine = CO[C@@H]([C@@H]1CCCN1)[C@@H](C)C(=O)O; Dil = CC[C@H](C)[C@H](NC)[C@@H](CC(=O)O)OC; X2 = C[C@@H](N*)[C@@H](O)c1ccccc1; NMeV = CN[C@H](C(=O)O)C(C)C

What follows are compounds tested against BTK (Homo sapiens, UniProt Q06187) (assay: biochemical). Conditions: read-out: BTK inhibition (%).
BTK, sequence (Q06187 402-655 limits assumed): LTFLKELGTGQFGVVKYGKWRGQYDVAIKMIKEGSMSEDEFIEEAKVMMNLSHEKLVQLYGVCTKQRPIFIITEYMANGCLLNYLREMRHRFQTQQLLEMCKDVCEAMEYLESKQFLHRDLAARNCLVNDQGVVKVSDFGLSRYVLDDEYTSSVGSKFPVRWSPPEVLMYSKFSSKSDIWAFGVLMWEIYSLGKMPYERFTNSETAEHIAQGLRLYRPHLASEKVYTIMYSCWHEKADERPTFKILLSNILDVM

Compound	inhibition at 10 µM [%]
CC[C@H](C)[C@@H]([C@@H](CC(=O)N1CCC[C@H]1[C@H](OC)[C@@H](C)C(=O)N[C@H](C)[C@@H](O)c1ccccc1)OC)N(C)C(=O)[C@@H](NC(=O)[C@@H](NC)C(C)C)C(C)C [PCM-0215521] (H-[NMeV]V[Dil][Dolaproine]-X2)	-3.9

Same assay, conditions: read-out: BTK inhibition (%), 0.75 uM BTK, […] probe 3l, 15 min preincubation

Compound	inhibition at 10 µM [%]
CC(C)N(CCNC(=O)CN1CCCC1=O)C(C)C [PCM-0095202]	1.6
O=C(O)c1ccc(O)c2ncccc12 [PCM-0215316]	-4.6
CC1(C)CCC[C@]2(C)[C@H]3CCO[C@]3(C)CC[C@@H]12 [PCM-0215965]	15.4
Cc1cc(NC(=O)Nc2ccc(N(C)C)cc2)c2cc(F)cc(F)c2n1 [PCM-0095106]	6.2
COc1cc(C[C@H](C)[C@H](C)Cc2ccc3c(c2)OCO3)ccc1O [PCM-0216424]	68.7
CO[C@]1(CC[C@@H](C)CO[C@@H]2O[C@H](CO)[C@@H](O)[C@H](O)[C@H]2O)O[C@H]2C[C@H]3[C@@H]4CC=C5C[C@@H](O[C@@H]6O[C@H](CO)[C@@H](O[C@@H]7O[C@@H](C)[C@H](O)[C@@H](O)[C@H]7O)[C@H](O)[C@H]6O[C@@H]6O[C@@H](C)[C@H](O)[C@@H](O)[C@H]6O)CC[C@]5(C)[C@H]4CC[C@]3(C)[C@H]2[C@@H]1C [PCM-0216533]	-6.2
COc1ccc(-c2cnc3c(-c4cccc5ncccc45)cnn3c2)cc1 [PCM-0215297]	-2.3
O=c1ccc2ccc(O)c(O)c2o1 [PCM-0065041]	15.9
O=C1C(=O)c2ccccc2C(O)=C1C1CCC(c2ccc(Cl)cc2)CC1 (centres unmarked) [PCM-0214729]	16.3
COC(=O)[C@@]1(C)CC[C@]2(C(=O)O)CC[C@]3(C)C(=CC[C@@H]4[C@@]5(C)C[C@H](O)[C@H](O)[C@@](C)(CO)[C@@H]5CC[C@]43C)[C@@H]2C1 [PCM-0216474]	-0.8
C/C=C(/C)C(=O)O[C@H]1Cc2cc3ccc(=O)oc3cc2OC1(C)C [PCM-0214953]	0.8
CCOC(=O)[C@H](CCc1ccccc1)N[C@@H](C)C(=O)N(CC(=O)O)C1Cc2ccccc2C1 [PCM-0216640]	-10
CCCCOc1ccc(CC(=O)NO)cc1 [PCM-0085771]	6.9
COc1ccc(-c2nc(-c3cc(C(F)(F)F)cc(C(F)(F)F)c3)n(Cc3ccc(C(N)=O)cc3)c2-c2ccc(OC)cc2)cc1 [PCM-0215748]	57.1
CN(C)c1ccc2nc3ccc(=[N+](C)C)cc-3sc2c1 [PCM-0090465]	42.8
O=C(O)COCCN1CCN([C@H](c2ccccc2)c2ccc(Cl)cc2)CC1 [PCM-0215119]	-6.2
Cc1nnc(NS(=O)(=O)c2ccc(N)cc2)s1 [PCM-0086420]	-10.9
Nc1nc(NC2CC2)cc(-c2cccc(Cl)c2Cl)n1 [PCM-0215420]	28.6
CNC(=O)c1cc(Oc2ccc(NC(=O)Nc3ccc(Cl)c(C(F)(F)F)c3)c(F)c2)ccn1 [PCM-0095050]	13.1
N[C@H]1C[C@@H]1c1ccc(-c2cccc(O)c2)cc1 [PCM-0095788]	-1.5
CN(C)CCN1C(=O)c2cccc3cc(N)cc(c23)C1=O [PCM-0095001]	0.8
Cn1cc(-c2ccncc2)c(-c2ccc(OCc3ccc4ccccc4n3)cc2)n1 [PCM-0095695]	-33.5
c1ccc2[nH]c(-c3cscn3)nc2c1 [PCM-0086067]	-17.1
OC(c1ccccc1)(c1ccccc1)C12CC[N+](CCOCc3ccccc3)(CC1)CC2 [PCM-0214921]	-34.2
C[C@H]1COC2=C1C(=O)C(=O)c1c2ccc2c1CCCC2(C)C [PCM-0091097]	15.6
CC(=O)Oc1cc2c(s1)CCN(C(C(=O)C1CC1)c1ccccc1F)C2 (centres unmarked) [PCM-0095029]	-2.3
CCn1cc(C(=O)O)c(=O)c2c(N)c(F)c(NC3CCCCC3)cc21 [PCM-0215625]	5.4
COc1ccccc1N1CCN(CCN(C(=O)C2CCCCC2)c2ccccn2)CC1 [PCM-0064827]	-6.2

Compound	inhibition at 10 µM [%]
N#C/C(=C(\O)c1ccc(Cl)cc1Cl)c1nc2ccccc2c(=O)[nH]1 [PCM-0215733]	-6.9
CC[C@H](C)[C@H](N)C(=O)O [PCM-0215927]	7.7
NC(=O)c1ncn([C@@H]2O[C@H](CO)[C@@H](O)[C@H]2O)c1N [PCM-0095118]	4.8
Nc1ncn([C@H]2C[C@H](O)[C@@H](CO)O2)c(=O)n1 [PCM-0094900]	11
Cc1nc(Nc2cnn(C3CCNCC3)c2)nc2c1N(C)C(=O)c1cc3ccccc3cc1N2C [PCM-0213384]	30.3
C=C[C@H]1CN2CC[C@@]3(C(=O)Nc4ccccc43)[C@@H]2C[C@@H]1/C(=C\OC)C(=O)OC [PCM-0216491]	-7.7
COc1ccc(-c2cc(=O)c3c(O)c(OC)c(O)c(OC)c3o2)cc1 [PCM-0214999]	80.7
CCCCCCOc1cc(C)c(O)c(C)c1C [PCM-0216088]	-25.5
O=C(/C=C/c1ccc(O)c2c1[C@H](C(=O)O[C@H](Cc1ccc(O)c(O)c1)C(=O)O)[C@@H](c1ccc(O)c(O)c1)O2)O[C@H](Cc1ccc(O)c(O)c1)C(=O)O [PCM-0214854]	-34.2
NCCOCCOCCNC(=O)Cc1ccc(Nc2nc(NCc3ccc(F)cc3)nc(NCC3CCCCC3)n2)cc1 [PCM-0215568]	-36.3
Nc1ccc(-c2cccc(C(=O)Nc3cnc4nc(N5CCOCC5)oc4c3)n2)cn1 [PCM-0215899]	2.1
OCCc1c[nH]c2ccccc12 [PCM-0215120]	-24.1
O=C(Nc1ccccc1)Nc1ccc(-c2ccc(C(=O)[C@@H]3CCC[C@H]3C(=O)O)cc2)cc1 [PCM-0095351]	22.6
COc1ccc(C2=N[C@@H](c3ccc(Cl)cc3)[C@@H](c3ccc(Cl)cc3)N2C(=O)N2CCNC(=O)C2)c(OC(C)C)c1 [PCM-0094990]	14.5
Cc1cc(C)nc(NS(=O)(=O)c2ccc(NC(=S)NC(=O)COc3ccc(Br)cc3Cl)cc2)n1 [PCM-0095801]	59.5
CN(C)CCc1ccc(O)cc1 [PCM-0094832]	-21.8
COc1ccc(-c2coc3cc(O[C@@H]4O[C@H](CO)[C@@H](O)[C@H](O)[C@H]4O)ccc3c2=O)cc1O [PCM-0216381]	-10
CC(C)=CCc1cc2c(cc1O)oc(=O)c1c3ccc(O)cc3oc21 [PCM-0216176]	17.2
CNC(=O)c1ccc2cc([C@@]3(O)CCn4cncc43)ccc2c1 [PCM-0095080]	3.1
NS(=O)(=O)c1cc2c(cc1Cl)NC=NS2(=O)=O [PCM-0064466]	-10.1
COC1=C(OC)C(=O)C(CCCCCCCCCCO)=C(C)C1=O [PCM-0085939]	-11
Cc1cc(C(C)(C)C)cc(C)c1CC1=NCCN1 [PCM-0064984]	-0.8
CC(ONC(=O)c1cc(C(F)(F)F)cc(C(F)(F)F)c1)C(=O)Nc1ccc(Cl)cc1 (centres unmarked) [PCM-0215433]	7.7
OC(CNc1ccccc1)Cn1c2ccc(Br)cc2c2cc(Br)ccc21 (centres unmarked) [PCM-0215533]	44.8
C/C=C(/C)C(=O)OC(C)(C)[C@@H]1Cc2c(ccc3ccc(=O)oc23)O1 [PCM-0216607]	-23.9
CN1CCN(C(=O)c2cc3cc(Cl)ccc3[nH]2)CC1 [PCM-0095374]	-2.1
Cc1c(Cl)c(OCC(=O)N2CCN(C)CC2)nc2sc(C(=O)NC3CC3)c(N)c12 [PCM-0215380]	-10.8
